Structures are written as SMILES. Structures can show the parent of a compound that is named as a salt.

The nature of the data set: in vitro. Particulars: human, hek293t cells.
For `Cc1ccccc1CN1CCC(NC(=O)CCl)CC1` [6-L08, 2-chloro-N-{1-[(2-methylphenyl)methyl]piperidin-4-yl}acetamide hydrochloride], the viability at 48 h, 25 µM was determined as 113%. For the compound `O=C(CCl)N(Cc1cnn(-c2ccccc2)c1)C1CC1` [6-L09, 2-chloro-N-cyclopropyl-N-[(1-phenyl-1H-pyrazol-4-yl)methyl]acetamide], the viability at 48 h, 25 µM is 1.4%. Next, `CC(Cl)C(=O)Nc1nc(-c2ccccc2)cs1` (centres unmarked) [6-L10, 2-chloro-N-(4-phenyl-1,3-thiazol-2-yl)propanamide]: 101%. Next, `O=C(CCl)N(Cc1ccc2c(c1)CCO2)C1CCCC1` [6-L11, 2-chloro-N-cyclopentyl-N-[(2,3-dihydro-1-benzofuran-5-yl)methyl]acetamide]: 0.358%; `COc1cc(S(=O)(=O)N2CCOCC2)ccc1NC(=O)CCl` [6-L12, 2-chloro-N-[2-methoxy-4-(morpholine-4-sulfonyl)phenyl]acetamide]: 0.942%; `CC(Cl)C(=O)N1C2CCC1CC(N(C)C(=O)c1ccccc1)C2` (centres unmarked) [6-L14, N-[8-(2-chloropropanoyl)-8-azabicyclo[3.2.1]octan-3-yl]-N-methylbenzamide]: 101%. Next, `CC(Cl)C(=O)NC1CC(C)N(c2ccccc2)C1` (centres unmarked) [6-L15, 2-chloro-N-(5-methyl-1-phenylpyrrolidin-3-yl)propanamide]: 99.3%; `CC(Cl)C(=O)N(C)C1CCCc2c1cnn2C` (centres unmarked) [6-L16, 2-chloro-N-methyl-N-(1-methyl-4,5,6,7-tetrahydro-1H-indazol-4-yl)propanamide]: 112%. `CC(Cl)C(=O)N(C(C)CS(C)(=O)=O)C1CC1` (centres unmarked) [6-L17, 2-chloro-N-cyclopropyl-N-(1-methanesulfonylpropan-2-yl)propanamide]: the viability at 48 h, 25 µM was 112%.

`CC1CN(c2cccc(CN(C)C(=O)C(C)Cl)c2)S(=O)(=O)C1` (centres unmarked) [6-L18, 2-chloro-N-methyl-N-{[3-(4-methyl-1,1-dioxo-1lambda6,2-thiazolidin-2-yl)phenyl]methyl}propanamide]: the viability at 48 h, 25 µM is 112%. Consider `COCC(NC(=O)C(C)Cl)c1cccc(C#N)c1` (centres unmarked) [6-L19, 2-chloro-N-[1-(3-cyanophenyl)-2-methoxyethyl]propanamide], for which the viability at 48 h, 25 µM is 107%. As for `CC(Cl)C(=O)NC1CS(=O)(=O)Cc2ccccc21` (centres unmarked) [6-L20, 2-chloro-N-(2,2-dioxo-3,4-dihydro-1H-2lambda6-benzothiopyran-4-yl)propanamide], the figure is 93.5%; as for `CC(Cl)C(=O)NC(c1cccs1)c1cccs1` (centres unmarked) [6-L21, N-[bis(thiophen-2-yl)methyl]-2-chloropropanamide], 100%; as for `CCn1cc(CN(C)C(=O)C(C)Cl)nn1` (centres unmarked) [6-L22, 2-chloro-N-[(1-ethyl-1H-1,2,3-triazol-4-yl)methyl]-N-methylpropanamide], 94.7%.

Regarding `COc1ccc(C2CCCN2C(=O)CCl)cc1OC` (centres unmarked) [6-M03, 2-chloro-1-[2-(3,4-dimethoxyphenyl)pyrrolidin-1-yl]ethan-1-one], the viability at 48 h, 25 µM was 0.75%.

With `O=C(CCl)Nc1ccc(CN2CCCCC2)cc1` [6-M04, 2-chloro-N-{4-[(piperidin-1-yl)methyl]phenyl}acetamide hydrochloride], the viability at 48 h, 25 µM stood at 0.0889%. Next, `CN(CC(=O)Nc1c(Cl)cccc1Cl)C(=O)CCl` [6-M05, 2-chloro-N-{[(2,6-dichlorophenyl)carbamoyl]methyl}-N-methylacetamide]: 2.21%; `CNC(=O)C(NC(=O)CCl)c1ccccc1` (centres unmarked) [6-M06, 2-(2-chloroacetamido)-N-methyl-2-phenylacetamide]: 0.807%. Next, `CNS(=O)(=O)c1cc(NC(=O)CCl)ccc1C` [6-M07, 2-chloro-N-[4-methyl-3-(methylsulfamoyl)phenyl]acetamide]: 0.859%; `O=C(CCl)NC1CCS(=O)(=O)CC1` [6-M08, 2-chloro-N-(1,1-dioxo-1lambda6-thian-4-yl)acetamide]: 53.7%. Regarding `COc1cc(C)c(C(C)NC(=O)CCl)cc1OC` (centres unmarked) [6-M09, 2-chloro-N-[1-(4,5-dimethoxy-2-methylphenyl)ethyl]acetamide], the viability at 48 h, 25 µM was found to be 3.89%. As for `CCOc1ccccc1NC(=O)C(C)Cl` (centres unmarked) [6-M10, 2-chloro-N-(2-ethoxyphenyl)propanamide], the figure is 93.2%; as for `CCN(Cc1ccc(Cl)s1)C(=O)CCl` [6-M11, 2-chloro-N-[(5-chlorothiophen-2-yl)methyl]-N-ethylacetamide], 0.655%; as for `O=C(CCl)NC(c1ccccc1)c1ccccc1` [6-M12, 2-chloro-N-(diphenylmethyl)acetamide], 0.81%. As for `CC(Cl)C(=O)Nc1ccc(S(=O)(=O)N2CCCC2)cc1` (centres unmarked) [6-M13, 2-chloro-N-[4-(pyrrolidine-1-sulfonyl)phenyl]propanamide], the figure is 117%. As for `NC(=O)c1cc(-c2ccccc2)sc1NC(=O)CCl` [6-M14, 2-(2-chloroacetamido)-5-phenylthiophene-3-carboxamide], the figure is 0.446%; as for `COc1ccc(CN(C)C(=O)CCl)cc1` [6-M15, 2-chloro-N-[(4-methoxyphenyl)methyl]-N-methylacetamide], 0.805%.

For `O=C(CCl)NCCc1ccc(Cl)cc1Cl` [6-M16, 2-chloro-N-[2-(2,4-dichlorophenyl)ethyl]acetamide], the viability at 48 h, 25 µM worked out at 1.06%. Next, `O=CN1CCN(C(=O)CCl)CC1` [6-M17, 4-(2-chloroacetyl)piperazine-1-carbaldehyde]: 2.22%; `CC(Cl)C(=O)N(CCC#N)c1ccccc1` (centres unmarked) [6-M18, 2-chloro-N-(2-cyanoethyl)-N-phenylpropanamide]: 105%. As for `O=C(CCl)N1CCCC1c1ccccc1` (centres unmarked) [6-M19, 2-chloro-1-(2-phenylpyrrolidin-1-yl)ethan-1-one], the figure is 0.923%; as for `O=C(CCl)N1CC2CCC(C1)O2` [6-M20, 2-chloro-1-{8-oxa-3-azabicyclo[3.2.1]octan-3-yl}ethan-1-one], 1.12%; as for `CC(c1cccs1)N(C)C(=O)CCl` (centres unmarked) [6-M21, 2-chloro-N-methyl-N-[1-(thiophen-2-yl)ethyl]acetamide], 0.384%. With `CC(c1cccc(NC(=O)c2ccccc2)c1)N(C)C(=O)CCl` (centres unmarked) [6-M22, N-{3-[1-(2-chloro-N-methylacetamido)ethyl]phenyl}benzamide], the viability at 48 h, 25 µM was determined as 0.237%. Next, `Cc1cc(C=C2CCN(C(=O)C(C)Cl)CC2)no1` (centres unmarked) [6-N03, 2-chloro-1-{4-[(5-methyl-1,2-oxazol-3-yl)methylidene]piperidin-1-yl}propan-1-one]: 104%; `Cc1ccc(C)c(NC(=O)CN(C)C(=O)CCl)c1` [6-N04, 2-chloro-N-{[(2,5-dimethylphenyl)carbamoyl]methyl}-N-methylacetamide]: 0.906%; `CC(Cl)C(=O)N1CCC(n2c(=O)[nH]c3ccccc32)CC1` (centres unmarked) [6-N05, 1-[1-(2-chloropropanoyl)piperidin-4-yl]-2,3-dihydro-1H-1,3-benzodiazol-2-one]: 109%. In the case of `O=C(CCl)Nc1ccc2oc3ccccc3c2c1` [6-N06, 2-chloro-N-{8-oxatricyclo[7.4.0.0,2,7]trideca-1(9),2(7),3,5,10,12-hexaen-4-yl}acetamide], the viability at 48 h, 25 µM worked out at 2.09%. As for `CC(Cl)C(=O)N1CCOC(c2ccc(Cl)s2)C1` (centres unmarked) [6-N07, 2-chloro-1-[2-(5-chlorothiophen-2-yl)morpholin-4-yl]propan-1-one], the figure is 111%; as for `O=C(CCl)NC1CCN(C(=O)CCc2ccccc2)CC1` [6-N08, 2-chloro-N-[1-(3-phenylpropanoyl)piperidin-4-yl]acetamide], 1.6%. With `CCc1nc2cc(CNC(=O)C(C)Cl)ccc2n1C1CC1` (centres unmarked) [6-N09, 2-chloro-N-[(1-cyclopropyl-2-ethyl-1H-1,3-benzodiazol-5-yl)methyl]propanamide], the viability at 48 h, 25 µM came to 102%. Next, `CCN(CC)c1ccc(NC(=O)CCl)cc1` [6-N10, 2-chloro-N-[4-(diethylamino)phenyl]acetamide]: 2.56%; `CC(Cl)C(=O)N1CCC(Cc2ccncc2)C1` (centres unmarked) [6-N11, 2-chloro-1-{3-[(pyridin-4-yl)methyl]pyrrolidin-1-yl}propan-1-one]: 106%. As for `N#CCCSc1ccccc1NC(=O)CCl` [6-N12, 2-chloro-N-{2-[(2-cyanoethyl)sulfanyl]phenyl}acetamide], the figure is 1.44%. Next, `CC(Cl)C(=O)Nc1ccc2c(c1)ncn2-c1ccccc1` (centres unmarked) [6-N13, 2-chloro-N-(1-phenyl-1H-1,3-benzodiazol-5-yl)propanamide]: 105%; `CC(Cl)C(=O)NCc1nnc2n1-c1ccccc1CC2` (centres unmarked) [6-N14, 2-chloro-N-({4H,5H-[1,2,4]triazolo[4,3-a]quinolin-1-yl}methyl)propanamide]: 110%; `CC(Cl)C(=O)NCCS(=O)(=O)c1cccs1` (centres unmarked) [6-N15, 2-chloro-N-[2-(thiophene-2-sulfonyl)ethyl]propanamide]: 105%. With `CC(Cl)C(=O)N1CCCN(C)c2cc(F)ccc21` (centres unmarked) [6-N16, 2-chloro-1-(7-fluoro-5-methyl-2,3,4,5-tetrahydro-1H-1,5-benzodiazepin-1-yl)propan-1-one], the viability at 48 h, 25 µM worked out at 101%.

Turning to `Cc1nn(C)c(N2CCCN(C)CC2)c1CNC(=O)C(C)Cl` (centres unmarked) [6-N17, 2-chloro-N-{[1,3-dimethyl-5-(4-methyl-1,4-diazepan-1-yl)-1H-pyrazol-4-yl]methyl}propanamide], the viability at 48 h, 25 µM is 107%. Regarding `CC(Cl)C(=O)N1C2CCC1CC1(C2)CC1(F)F` (centres unmarked) [6-N18, 2-chloro-1-{2',2'-difluoro-8-azaspiro[bicyclo[3.2.1]octane-3,1'-cyclopropan]-8-yl}propan-1-one], the viability at 48 h, 25 µM came out at 112%.

The viability is a read-out of living cells in per cent, often relative to untreated cells.

These data come from article PMC11995724, “Antibiotic target discovery by integrated phenotypic and activity-based profiling of electrophilic fragments” (Cell chemical biology, 2025).
